Series [1] relates to CD34 cells. The series can be described thus: Transition metal chelators in CD34+ cell liquid cultures (cell number, CD34 cells, clonability). Type of series: cell-based, human. As for the experimental part:
The interphase layer of mononuclear cells were collected, washed three times with Ca/Mg free phosphate buffered saline containing 1% bovine serum albumin (BSA). The cells were incubated for 30 min. at 4° C. with murine monoclonal anti CD34 antibody (0.5 μg/10^6 mononuclear cells) and thereafter isolated using the miniMACS apparatus (Miltenyi-Biotec, Bergisch, Gladbach, Germany) according to the manufacturer's protocol.
Culture procedures: For the expansion of progenitor cells, CD34^+ enriched fractions or unseparated mononuclear cells were seeded at about 1-3×10^4 cells/ml in either alpha minimal essential medium containing 10% preselected fetal calf serum (FCS) (both from GIBCO, Grand Island, N.Y.), or serum-free medium (Progenitor-34 medium, Life Technologies, Grand Island, N.Y.). The media were supplemented with a mixture of growth factors and transition metal chelators. The cultures were incubated at 37° C. in an atmosphere of 5% CO2 in air with extra humidity. Half of the medium was changed weekly with fresh medium containing all the supplements.
Cloning potential evaluations: The cloning potential of cells developed in the liquid culture was assayed, at different intervals, in semi-solid medium. The cells were washed and seeded in 35 mm dishes in methylcellulose containing alpha medium supplemented with recombinant growth factors (SCF, G-CSF, GM-CSF and EPO). Following 2 weeks incubation, the cultures were scored with an inverted microscope. Colonies were classified as blast, mixed, erythroid, myeloid, and megakaryocytic, according to their cellular composition.
Morphological assessment: In order to characterize the resulting culture populations, aliquots of cells were deposited on a glass slide (cytocentrifuge, Shandon, Runcorn, UK), fixed and stained in May-Grunwald Giemsa. Other aliquots were stained by benzidine for intracellular hemoglobin.
Immunofluorescence staining: At different intervals, cells from the liquid cultures were assayed for CD34 antigen. Aliquots were harvested, washed and incubated on ice with FITC-labeled anti CD45 monoclonal antibody and either PE-labeled anti CD34 (HPCA-2) monoclonal antibody or PE-labeled control mouse Ig. After incubation, red cells were lysed with lysing solution, while the remaining cells were washed and analyzed by flow cytometer.
Flow cytometry: Cells were analyzed and sorted using FACStar^plus flow cytometer (Becton-Dickinson, Immunofluorometry systems, Mountain View, Calif.). Cells were passed at a rate of 1,000 cells/second through a […] nozzle, using saline as the sheath fluid. […] The PMTs was set at the appropriate voltage. Logarithmic amplification was applied for measurements of fluorescence and linear amplification—for forward light scatter. At least 10^4 cells were analyzed.
Cord blood-derived CD34 cells were plated in liquid culture in the presence of: FL—50 ng/ml, SCF—50 ng/ml, IL-6—50 ng/ml, with or without IL-3—20 ng/ml, with or without TEPA—10 μM. On day 7, the percentage of CD34 cells and the total cell number were determined. Aliquots equivalent to 1×10^3 initiating cells were assayed on days 0 and 7 for colony forming cells (CFU) by cloning in semi-solid medium. CFU expansion represents the ratio of CFU present on day 7 to CFU present on day 0.
CD34^+ cells derived from human neonatal cord blood were purified by immunomagnetic method and then cultured in liquid medium supplemented with cytokines either with or without transition metal chelators. At weekly intervals, the cultures were demi-depopulated by removing half of the culture content (supernatant and cells) and replacing it with fresh medium, cytokines and the chelators. At the indicated weeks the cellular content of the cultures were quantified for total cells (by a manual microscopic/hemocytometric method), for CD34^+ cells (by immuno-flow cytometry) and for clonogenic cells (by cloning the cells in cytokine-supplemented semi-solid medium).

For series [2], the system named is HL-60 (human myeloid leukemia cell line). The series can be described thus: Inhibition / induction of differentiation and growth inhibition of HL-60 cells by chelators. Type of series: cell-based. The following applies: 1000 nM. From the text:
(§1) FIG. 44 provides the chemical structure of the various chelators employed in these experiments.

Series [3] deals with HL-60 cells. As to the kind of experiment: Copper determination in chelator treated cells (atomic absorption). Type of series: cell-based, human. The procedure: Copper Determination: Cells were harvested by centrifugation at 1000×g for 5 minutes. The cell pellet was washed three times by re-suspending the cells in PBS (Ca^++ and Mg^++ free) and centrifugation at 1000×g. An aliquot containing 2×10^6 cells was then transferred into a metal-free Eppendorf tube and the cells were recovered by centrifugation at 1000×g. The cell pellet was re-suspended in 0.03 M ultra-pure nitric acid to give a concentration of 1×10^7 cells/ml. The cells were homogenized with a high shear mixer (polytron, Kinematica, Switzerland) for 1 minutes to disrupt the cell and release intracellular copper content. Cell samples were vortexed before transferring to a vial autosampler and analyzed in duplicate by a Perkin Elmer graphite furnace atomic absorption spectrophotometer at a wavelength of 324.7 nm. The samples were analyzed against copper standard solution prepared from a commercial stock solution that was diluted with 0.03 M ultra pure nitric acid.
as §1

SMILES strings stand for the structures.

Turning to `C1CNCCNCCNCCN1` [1,4,7,10-Tetraaza cyclododecane], the “effect on differentiation of CD34+ cells” value in series [1] is given as “stimulate differentiation”. For the same compound, the “Differentiation Induction” value in series [2] is “Toxic”. Further, the “Average Intracellular ppb Cu” value in series [3] (20 μM chelator) is reported as 27.5 ppb; in series [3] (100 μM chelator), 73.9 ppb; in series [3] (500 μM chelator), “Toxic”. In series [3] (Homo sapiens, HL-60, 20 μM chelator, read-out: Average Intracellular Cu (% of control)), the activity at 20 µM was determined as 56%. Further, the activity at 100 µM in series [3] (Homo sapiens, HL-60, 100 μM chelator, read-out: Average Intracellular Cu (% of control)) turned out to be 150%.

The record behind these values is patent US20050054103A1, “Expansion of renewable stem cell populations using modulators of PI 3-kinase” (priority 2003, published 2005).
